Assay results as given in patent US20080119530A1, “Method for treatment and prevention of ultraviolet light induced skin pathologies” (priority 2006, published 2008).

What was measured:
Tg.AC mice = experiment: UV-induced epidermal hyperplasia in mouse skin; type: in vivo
From the text: Animals. Homozygous v-rasHa transgenic mice on an FVB/N background were used in in vivo experiments. To obtain keratinocytes with genetic ablation of Erbb2, loxP sites were inserted flanking exon 2 of Erbb2 such that splicing from exon1 to downstream introns upon Cre recombinase expression creates a frameshift mutation. Mice were maintained in our animal facility and provided with Purina lab chow (Nestle Purina PetCare, St. Louis, Mo.) and water ad libitum. The dorsal skin was clipped one day before treatment using electric clippers (Wahl, Sterling, II) and shaved on the day of treatment with a Remington Microscreen shaver (Madison, N.C.). […] The Ultraviolet-B TL 40W/12 RS bulbs (Philips, Somerset, N.J.) used emitted approximately 30% UVA, 70% UVB and <1% UVC, with a total output of 470 μW/cm^2, as measured with radiometric photodetector probes (Newport, Irvine, Calif.). For tumor experiments, homozygous Tg.AC mice were treated and exposed twice with an interval of 7 d. Tumor number was counted and tumor volume measured weekly using calipers. Skin-fold thickness was measured using calipers (Mitutoyo, Aurora, Ill.) to lightly pinch the dorsal skin. […]
The influence of Erbb2 on epidermal hyperplasia was measured during the first two weeks of the tumor experiment regimen. […]

Erbb3 = experiment: UV-induced phosphorylation of Erbb3; type: cell-based, mouse
From the text: Several methods were developed to regulate Erbb2 expression and activity both in vitro and in vivo.

Erbb2 = Erbb2 expression in keratinocytes (immunoblot); type: cell-based, mouse; details: cultured keratinocytes, AG825
From the text: For some experiments, the epidermis was separated from the skin by the heat shock method before homogenization. Keratinocytes were lysed in the same buffer. Membranes were immunoblotted with antibodies recognizing Erbb2, phospho-Erbb2 (Tyr^1248), EGFR, phospho-EGFR (Tyr^992), phospho-EGFR (Tyr^1173), phosphotyrosine, and Tall (Calbiochem, San Diego, Calif.). Binding of horseradish peroxidase-conjugated secondary antibodies (Cell Signaling, Beverly, Mass.) was visualized using chemiluminescent reagents (Pierce, Rockford, Ill.) and autoradiography. Densitometry was performed using IDScan software (Scanalytics, Fairfax, Va.).
Cell culture. […] Keratinocytes were transfected with Erbb2-targeted siRNA (32), Stealth RNAi Negative Control LO GC (Invitrogen, Carlsbad, Calif.), Cy3-conjugated Label IT RNAi Delivery Control (Mirus, Madison, Wis.) or sham transfection with TransIT-siQUEST Transfection Reagent (Mirus, Madison, Wis.). Plasmids with Cdc25a (Hassepass et al. 2003a) and EGFP (enhanced green fluorescent protein) cDNA were cotransfected with Lipofectamine Transfection Reagent (Invitrogen, Carlsbad, Calif.). Transfection efficiency was quantified by determining the proportion of the cells that incorporated the fluorescent Cy3-conjugated siRNA or GFP one day post-transfection. […]

COc1cc(/C=C(\C#N)C(N)=O)cc(CSc2nc3ccccc3s2)c1O [AG825]
effect on epidermal hyperplasia (Tg.AC mice; first week after UV irradiation): minimal
epidermal hyperplasia (Tg.AC mice; following the second UV irradiation): significantly suppressed
UV-induced phosphorylation of Erbb3-Tyr1289 (Erbb3): blocked
expression levels of Erbb2 (Erbb2): without altering
